Reference: patent US11590148B2, “Use of calcifediol in bariatric surgery patients” (OPKO IRELAND GLOBAL HOLDINGS, LTD., priority 2018, dated 2023)

Key:
Format in all cases: in vivo, human
[1] = tested on: patients having undergone bariatric surgery (bypass of at least the duodenum); assay: Long-term efficacy study in Roux-en-Y surgery patients (one year, randomized, double-blind, vs cholecalciferol)
Description: The effectiveness of oral sustained-release 25-hydroxyvitamin D3 in restoring serum total 25-hydroxyvitamin D to optimal levels (>30 ng/mL) and increasing bone mineral density, is examined in a one year study of adult male and female patients having undergone bariatric surgery for weight reduction, wherein the surgery included bypass of at least the duodenum. In a randomized, double-blind controlled study, patients are treated with sustained-release 25-hydroxyvitamin D3 or cholecalciferol.
A total of 200 subjects participate in this study. All subjects participating in this study are aged 18 years or older, have bone mineral density T-scores between −2.0 and −4.0 as assessed by dual energy x-ray absorptiometry (DEXA), and have serum total 25-hydroxyvitamin D levels less than 30 ng/mL at the time of enrollment. All subjects receive a multivitamin therapy including calcium (up to 1,000 mg daily) and either cholecalciferol (3000 IU daily) or multiple sustained-release 25-hydroxyvitamin D3 (softgel capsules containing 30 μg 25-hydroxyvitamin D3), and abstain from receiving other Vitamin D therapy and significant sun exposure at study start and continuing through study termination.
After 3 months, the daily 25-hydroxyvitamin D3 softgel capsule dosage is maintained unchanged in patients whose serum total 25-hydroxyvitamin D is between 50 and 90 ng/mL, and increased by one capsule in patients whose serum total 25-hydroxyvitamin D is below 50 ng/mL.
Serum total 25-hydroxyvitamin D, plasma iPTH, serum calcium, serum phosphorus, urinary calcium, urinary phosphorus, and urinary creatinine are measured from the day of surgery, and at monthly intervals. Bone mineral density at four sites (total hip, femoral neck, ⅓radius, and lumbar spine) is determined at quarterly intervals by DEXA.

[2] = tested on: patients who are candidates for Roux-en-Y Surgery; assay: Efficacy study in Roux-en-Y surgery patients (6-month)
Description: The effectiveness of oral sustained-release 25-hydroxyvitamin D3 in restoring serum total 25-hydroxyvitamin D to optimal levels (>30 ng/mL) and reducing parathyroid hormone level, is examined in a 6-month study of adult male and female patients who are candidates for Roux-en-Y Surgery for weight reduction. In a controlled study, patients are treated with sustained-release 25-hydroxyvitamin D3 (softgel capsules containing 25-hydroxyvitamin D3).
A total of 60 subjects participate in this study, all of whom have serum total 25-hydroxyvitamin D levels less than 30 ng/mL at the time of enrollment and serum intact parathyroid hormone levels greater than 70 pg/mL as evidence of SHPT. All subjects receive a multivitamin therapy including calcium (up to 1,000 mg daily) and cholecalciferol (3000 IU daily) following surgery, and abstain from receiving other Vitamin D therapy and significant sun exposure. Serum total 25-hydroxyvitamin D, serum intact parathyroid hormone, serum calcium, serum phosphorus, urinary calcium, urinary phosphorus, and urinary creatinine are measured from the day of surgery, and at monthly intervals following surgery.
After 2 months, the daily calcium dosage is maintained unchanged, and the cholecalciferol supplement is discontinued, while daily administration of sustained-release 25-hydroxyvitamin D3 (softgel capsules containing 30 μg 25-hydroxyvitamin D3) is initiated and continued for four months.

[3] = tested on: patients with intractable VDI having undergone bariatric surgery; assay: Long-term efficacy study in bariatric surgery patients (52-week, ERC)
Description: The effectiveness of oral extended-release 25-hydroxyvitamin D3 (ERC) in raising serum total 25-hydroxyvitamin D to ≥30 ng/mL and reducing plasma iPTH by at least 30% from pre-treatement baseline is examined in a 52-week study of male and female patients aged at least 18 years, with intractable VDI, and having undergone bariatric surgery. In a randomized, double-blind controlled study, patients receive ERC or matching placebo.
Subjects are without any disease state or physical condition that might impair evaluation of safety or which would interfere with study participation, including having serum albumin ≤3.0 g/dL; and serum transaminase (alanine aminotransferase [ALT], glutamic-pyruvic transaminase [SGPT], aspartate aminotransferase [AST] or glutamic-oxaloacetic transaminase [SGOT])>2.5 times the upper limit of normal at screening.
When otherwise confirmed eligible at Visit 1, if taking more than 1,500 mg per day of elemental calcium (from diet and supplements), subjects reduce calcium use (to ≤1,500 mg per day) for the duration of the study.
When otherwise confirmed eligible at Visit 1, if taking bone metabolism therapies that may interfere with study endpoints, subjects discontinue use of these agents for the duration of the study. […]
Blood samples are collected at weekly, biweekly or monthly intervals during the pre-treatment period, the 52-week treatment period, the 6-week post-treatment FU period, and at early termination (ET), if applicable. Key parameters analyzed in the collected samples include: plasma iPTH, serum calcium (corrected for serum albumin), serum phosphorus, serum total 25-hydroxyvitamin D, serum calcifediol, serum 1,25-dihydroxyvitamin D3, and serum 24,25-dihydroxyvitamin D3 (24,25D3). Vital signs (VS), and AEs are monitored at each study visit. Other parameters monitored less frequently include brief physical examinations (PEs) and clinical laboratory tests (hematology and clinical chemistries). […] Additional parameters, including serum FGF23 and serum bone turnover markers are monitored at specified intervals. […]

[4] = after 12 months of treatment, DEXA
[5] = once stable dosing has been achieved
[6] = months 0-2, cholecalciferol 3000 IU daily
[7] = time zero and months 1 and 2, cholecalciferol 3000 IU daily following surgery

## C=C1CC[C@H](O)C/C1=C/C=C1\CCC[C@]2(C)[C@@H]([C@H](C)CCCC(C)C)CC[C@@H]12 [cholecalciferol]
[1]; [4]
  change in bone mineral density: insignificant changes or reductions
[1]; [5]
  incidence of hypocalcemia: occur more frequently
  severity / occurrence of secondary hyperparathyroidism: occur more frequently
[2]; [6]
  change in mean serum total 25-hydroxyvitamin D level following surgery: only a moderate increase
  change in serum intact parathyroid hormone level following surgery: no significant difference
[2]; [7]
  group mean serum intact parathyroid hormone level: greater than 70 pg/mL
  group mean serum total 25-hydroxyvitamin D level: less than 30 ng/mL
[3]; [4]
  change in bone mineral density: insignificant changes or reductions
[3]; [5]
  incidence of hypocalcemia: occur more frequently
  severity / occurrence of secondary hyperparathyroidism: occur more frequently
